# Test results published in US10155027B2, “Alpha-galactosidase A and 1-deoxygalactonojirimycin co-formulation for the treatment of fabry disease” (Amicus Therapeutics, Inc., priority 2012, dated 2018).
# Where a name gives a salt, the structure may show the parent alone. Read-outs that look alike come from different tables or passages of the source.
# What was measured:
# [1] = General toxicology NOAEL, rat; format: in vivo
# [2] = Phase 2a study of oral migalastat HCl co-administered with agalsidase in Fabry patients; format: in vivo, human; settings: 23 Fabry patients; single oral 150 mg with 0.2, 0.5, and 1.0 mg/kg agalsidase
# [3] = General toxicology NOAEL, monkey; format: in vivo
# α-Gal A = molecular target: T1, α-Gal A (Homo sapiens, UniProt P06280); assay: α-Gal A stability in whole blood ex vivo at 37° C.; format: in vitro ADME; settings: 5 nM and 50 nM α-Gal A formulated with 10 μM DGJ
# T1 construct: purchased JCR Pharmaceuticals Co. Ltd, (Japan) JR-051; host or cells: CHO cells
# T1 sequence (P06280 32-429): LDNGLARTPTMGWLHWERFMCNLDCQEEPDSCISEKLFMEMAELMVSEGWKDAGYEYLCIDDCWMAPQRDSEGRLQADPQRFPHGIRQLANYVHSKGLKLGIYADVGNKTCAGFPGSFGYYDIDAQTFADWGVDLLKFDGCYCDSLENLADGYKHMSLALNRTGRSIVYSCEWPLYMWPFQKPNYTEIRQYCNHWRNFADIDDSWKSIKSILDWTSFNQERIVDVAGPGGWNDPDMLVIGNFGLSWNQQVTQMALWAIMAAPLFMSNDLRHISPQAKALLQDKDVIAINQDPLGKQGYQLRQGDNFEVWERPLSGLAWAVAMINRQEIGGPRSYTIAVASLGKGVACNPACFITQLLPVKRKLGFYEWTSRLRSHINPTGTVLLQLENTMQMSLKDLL
# Experimental: The effect of co-formulating α-Gal A with DGJ on α-Gal A stability in blood ex vivo was examined. Time-dependent loss of α-Gal A activity in whole blood at 37° C. was determined. 5 nM and 50 nM α-Gal A was formulated with or without 10 μM DGJ.
# [4] = Phase 1 single ascending dose 2-hour IV infusion PK in healthy subjects (Cohorts 1-3); format: in vivo, human; settings: for Vd / AUC(0-t) / AUC(0-inf) / Tmax / half-life / Cmax: human, plasma; for Vd: iv; for AUC(0-t): read-out: AUC0-t (geometric mean)
# Experimental: Healthy volunteers received migalastat HCl (DGJ HCl) via the intravenous (IV) route of administration to evaluate safety, tolerability, and pharmacokinetics. Another study was performed to determine the absolute bioavailability of migalastat after an oral capsule dose as compared to an IV administered dose of migalastat HCl in healthy volunteers. The absolute bioavailability arm was added to determine the exposure ratio of a 150 mg oral dose relative to a 150 mg dose administered as an IV infusion.
# Type of Study: This Phase 1 study was a single-center study consisting of 2 designs. Cohorts 1, 2, and 3 were performed according to a randomized, double-blind, placebo-controlled, single ascending dose (SAD) IV study design to evaluate the safety, tolerability, and PK of IV administered migalastat HCl or IV administered placebo in healthy subjects. Cohort 4 was an open-label, randomized two-way crossover arm designed to assess the absolute bioavailability of orally administered migalastat HCl relative to IV administered migalastat HCl in healthy subjects.
# Cohorts 1, 2, 3: Subjects in Cohorts 1, 2, and 3 received IV administered single ascending doses of migalastat HCl. Seven subjects were enrolled into each cohort (5 subjects randomized to migalastat HCl and 2 subjects randomized to placebo). Dosing of Cohorts 1, 2, and 3 was staggered to allow for safety and tolerability review before proceeding with the next group. Therefore, Cohorts 1, 2, and 3 were each divided into 2 sub-groups: Group A (2 subjects randomized to migalastat HCl and 1 subject randomized to placebo) and Group B (3 subjects randomized to migalastat HCl and 1 subject randomized to placebo). Subjects in Group B were dosed the day following completion of Group A dosing. Except for Cohort 3B, which was dosed 31 days after Cohort 3A because an interim PK review was performed on emerged data from Cohort 3A. Additionally, initiation of infusion was staggered by 60 minutes for Group A subjects, and by 30 minutes for Group B subjects (see FIG. 12).
# Subjects enrolled in Cohorts 1, 2, and 3 were randomized to receive one of the following doses of migalastat HCl (n=5) or placebo (n=2): […]
# [5] = not given; remark: listed apart in the source
# [6] = predicted human exposure at 0.3 mg/kg IV
# [7] = predicted human exposure at 10.0 mg/kg IV
# [8] = 1.0 mg/kg vs 0.3 mg/kg, theoretical 3.33
# [9] = 10 mg/kg vs 0.3 mg/kg, theoretical 33.3
# [10] = predicted exposure at 0.3 mg/kg IV
# [11] = predicted exposure at 10.0 mg/kg IV
smiles,measurement,setting,value
"OC[C@H]1NC[C@H](O)[C@@H](O)[C@H]1O [migalastat HCl, (2R,3S,4R,5S)-2-(hydroxymethyl) piperdine-3,4,5-triol]","Fold Cover to NOAEL AUC, Rat",[1]; [6],134
same,"Fold Cover to NOAEL Cmax, Rat",[1]; [6],65
same,"Fold Cover to NOAEL AUC, Rat",[1]; [7],4.05
same,"Fold Cover to NOAEL Cmax, Rat",[1]; [7],1.93
same,AUC,"[1]; rat, in vivo, 1500 mg/kg/day",24900 ng·h/mL
same,Cmax,"[1]; rat, in vivo, 1500 mg/kg/day",23400 ng/mL
same,NOAEL,"[1]; rat, in vivo, general toxicology",1500 mg/kg/day
same,tissue uptake of active α-Gal A into skin,[2],improved tissue uptake of active α-Gal A into skin
same,tolerability,"oral 150 mg capsule, healthy volunteers and Fabry patients",well tolerated
same,linearity of exposure,oral administrations,linear exposures to 1250 mg
same,tolerability,"single dose administrations up to 2000 mg, healthy volunteers, Phase 1",well tolerated
same,AUC,"[3]; monkey, in vivo, 500 mg/kg/day",30600 ng·h/mL
same,Cmax,"[3]; monkey, in vivo, 500 mg/kg/day",24500 ng/mL
same,NOAEL,"[3]; monkey, in vivo, general toxicology",500 mg/kg/day
same,"Fold Cover to NOAEL AUC, Monkey",[3]; [6],165
same,"Fold Cover to NOAEL Cmax, Monkey",[3]; [6],68
same,"Fold Cover to NOAEL AUC, Monkey",[3]; [7],4.98
same,"Fold Cover to NOAEL Cmax, Monkey",[3]; [7],2.02
same,effect on α-Gal A stability in whole blood,α-Gal A,stabilized the enzyme and prevented enzyme inactivation
same,CLT (arithmetic mean),[4]; 0.3 mg/kg IV,6.59 L/h
same,CLT (arithmetic mean),[4]; 1.0 mg/kg IV,7.68 L/h
same,"Ratio Test/Reference, AUC0-t",[4]; [8],3.01
same,"Ratio Test/Reference, AUC0-∞",[4]; [8],2.99
same,"Ratio Test/Reference, Cmax",[4]; [8],2.89
same,CLT (arithmetic mean),[4]; 10 mg/kg IV,7.40 L/h
same,"Ratio Test/Reference, AUC0-t",[4]; [9],35.5
same,"Ratio Test/Reference, AUC0-∞",[4]; [9],35.2
same,"Ratio Test/Reference, Cmax",[4]; [9],33.9
same,dose proportionality of plasma exposure parameters,[4]; 0.3 to 10 mg/kg single ascending IV dose range,appeared to be dose proportional
same,Vd,"[4]; 0.3 mg/kg, 0.3 mg/kg IV, read-out: Vss (arithmetic mean)",17.9 L
same,Vd,"[4]; 0.3 mg/kg, 0.3 mg/kg IV, read-out: Vz (arithmetic mean)",19.9 L
same,Vd,"[4]; 1 mg/kg, 1.0 mg/kg IV, read-out: Vss (arithmetic mean)",24.2 L
same,Vd,"[4]; 1 mg/kg, 1.0 mg/kg IV, read-out: Vz (arithmetic mean)",35 L
same,Vd,"[4]; 10 mg/kg, 10 mg/kg IV, read-out: Vss (arithmetic mean)",27.2 L
same,Vd,"[4]; 10 mg/kg, 10 mg/kg IV, read-out: Vz (arithmetic mean)",107 L
same,Vd,"[4]; 0.3 to 10 mg/kg IV, read-out: Vss, range over doses",17.9 to 27.2 L
same,Vd,"[4]; 0.3 to 10 mg/kg IV, read-out: arithmetic mean Vz, range over doses",19.9 to 107 L
same,AUC(0-t),[4]; 0.3 mg/kg IV,2280 ng·h/mL
same,AUC(0-inf),"[4]; 0.3 mg/kg IV, read-out: AUC0-∞ (geometric mean)",2320 ng·h/mL
same,Tmax,"[4]; 0.3 mg/kg IV, read-out: tmax (median)",1.93 h
same,half-life,"[4]; 0.3 mg/kg IV, read-out: t½ (arithmetic mean) (converted)",2.09 h
same,AUC(0-t),[4]; 1.0 mg/kg IV,6860 ng·h/mL
same,AUC(0-inf),"[4]; 1.0 mg/kg IV, read-out: AUC0-∞ (geometric mean)",6920 ng·h/mL
same,Tmax,"[4]; 1.0 mg/kg IV, read-out: tmax (median)",1.93 h
same,half-life,"[4]; 1.0 mg/kg IV, read-out: t½ (arithmetic mean) (converted)",3.21 h
same,AUC(0-t),[4]; 10 mg/kg IV,81100 ng·h/mL
same,AUC(0-inf),"[4]; 10 mg/kg IV, read-out: AUC0-∞ (geometric mean)",81400 ng·h/mL
same,Tmax,"[4]; 10 mg/kg IV, read-out: tmax (median)",1.93 h
same,half-life,"[4]; 10 mg/kg IV, read-out: t½ (arithmetic mean) (converted)",10 h
same,half-life,"[4]; 0.3 to 10 mg/kg IV, read-out: arithmetic mean apparent terminal t½, range over doses",2.09 to 10 h
same,AUC(0-inf),"[4]; 0.3 to 10 mg/kg IV, read-out: geometric mean AUC0-∞, range over doses",2320 to 81400 ng·h/mL
same,Cmax,"[4]; 0.3 to 10 mg/kg IV, read-out: geometric mean Cmax, range over doses",609 to 20700 ng/mL
same,Tmax,"[4]; dose levels of 0.3, 1.0, and 10 mg/kg IV, post start of infusion, read-out: median tmax",1.93 h
same,Cmax,"[4]; 0.3 mg/kg IV, 2-hour infusion, read-out: Cmax (geometric mean)",609 ng/mL
same,Cmax,"[4]; 1.0 mg/kg IV, 2-hour infusion, read-out: Cmax (geometric mean)",1760 ng/mL
same,Cmax,"[4]; 10 mg/kg IV, 2-hour infusion, read-out: Cmax (geometric mean)",20700 ng/mL
same,"Fold Cover to AUC from human oral 1250 mg, Max",[5]; [10],62
same,"Fold Cover to AUC from human oral 1250 mg, Median",[5]; [10],39
same,"Fold Cover to AUC from human oral 1250 mg, Min",[5]; [10],15.5
same,"Fold Cover to Cmax from human oral 1250 mg, Max",[5]; [10],61
same,"Fold Cover to Cmax from human oral 1250 mg, Median",[5]; [10],36
same,"Fold Cover to Cmax from human oral 1250 mg, Min",[5]; [10],2.6
same,"Fold Cover to AUC from human oral 1250 mg, Max",[5]; [11],1.89
same,"Fold Cover to AUC from human oral 1250 mg, Median",[5]; [11],1.19
same,"Fold Cover to AUC from human oral 1250 mg, Min",[5]; [11],0.47
same,"Fold Cover to Cmax from human oral 1250 mg, Max",[5]; [11],1.81
same,"Fold Cover to Cmax from human oral 1250 mg, Median",[5]; [11],1.07
same,"Fold Cover to Cmax from human oral 1250 mg, Min",[5]; [11],0.08
